We go through 19 compounds from patent publication US12162858B2, “Quinoline derivatives as inhibitors of AXL/MER RTK and CSF1R” (QURIENT CO., LTD., priority 2018, dated 2024).

For orientation: Kd means a measure of binding affinity in units of concentration.

Where two headings read alike, the source gives them in different places.

The target in test [1] is CSF1R (Homo sapiens, UniProt P07333). Kind of test: KINOMEscan competition binding assay for CSF1R. Also on record: DNA tag for qPCR (not a peptide); host or cells: E. coli/T7 phage or HEK-293. In short, it runs like this:
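Values are either % inhibition at 0.1 uM, relative to DMSO (100% Ctrl) and a control compound (0% Ctrl), or Kd from an 11-point 3-fold series fitted with Hill slope −1. DNA-tagged kinase binds immobilized ligand beads with compound for 1 h at room temperature, and eluted kinase is measured by qPCR.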

The target in test [2] is T1, Mer (Ba/F3 cells) (Homo sapiens, UniProt Q12866).
T1 sequence (Q12866 1-999): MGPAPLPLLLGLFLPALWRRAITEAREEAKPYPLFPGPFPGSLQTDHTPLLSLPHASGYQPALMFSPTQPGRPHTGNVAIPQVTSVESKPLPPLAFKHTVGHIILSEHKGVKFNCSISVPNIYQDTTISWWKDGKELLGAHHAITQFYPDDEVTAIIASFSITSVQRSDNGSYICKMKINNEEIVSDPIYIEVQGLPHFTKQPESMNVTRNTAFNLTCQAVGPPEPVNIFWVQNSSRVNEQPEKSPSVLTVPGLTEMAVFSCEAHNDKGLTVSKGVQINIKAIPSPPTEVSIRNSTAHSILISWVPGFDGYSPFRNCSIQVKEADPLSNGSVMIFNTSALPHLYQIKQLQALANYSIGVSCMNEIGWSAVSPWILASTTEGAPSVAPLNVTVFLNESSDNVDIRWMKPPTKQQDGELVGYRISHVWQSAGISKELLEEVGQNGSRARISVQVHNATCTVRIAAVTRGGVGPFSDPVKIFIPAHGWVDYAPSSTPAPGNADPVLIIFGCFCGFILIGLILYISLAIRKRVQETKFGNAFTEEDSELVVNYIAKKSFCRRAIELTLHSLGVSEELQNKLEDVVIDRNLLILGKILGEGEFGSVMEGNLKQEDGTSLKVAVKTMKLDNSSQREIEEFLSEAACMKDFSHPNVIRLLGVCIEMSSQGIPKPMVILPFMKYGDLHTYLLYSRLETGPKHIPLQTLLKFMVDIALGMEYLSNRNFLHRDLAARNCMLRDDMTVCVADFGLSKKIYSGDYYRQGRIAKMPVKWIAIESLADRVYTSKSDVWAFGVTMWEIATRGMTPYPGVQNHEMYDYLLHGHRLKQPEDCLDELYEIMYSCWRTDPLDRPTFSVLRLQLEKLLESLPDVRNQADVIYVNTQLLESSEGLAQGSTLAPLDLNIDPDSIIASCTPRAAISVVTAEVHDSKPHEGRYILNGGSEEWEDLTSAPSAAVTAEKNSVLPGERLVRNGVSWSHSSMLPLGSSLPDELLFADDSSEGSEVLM
Kind of test: BaF3 viability assay, Mer-dependent cells. Type of test: cell-based. The following applies: read-out: Cellular Mer activity by Ba/F3 assay (IC50). The source says:
(§1) In this system, IL-3-dependent Ba/F3 cells are modified to express an activated recombinant kinase (in the present case Axl, Mer and CSF1R). Following removal of IL-3, the modified cells are dependent on the activity of the recombinant kinase for survival and proliferation. Inhibition of such kinase(s) through test compounds reduces survival and proliferation of the cells.
(§2) Cell lines were maintained in growth media (GM) consisting of RPMI 1640 supplemented with 10% FBS. Cells in logarithmic-phase growth were harvested and 5,000 cells were distributed into each well of a 384-well plate in 50 μl GM. Parental cells (or experimental assays where specified) were further supplemented with 2 ng/ml IL-3 to support cell growth and survival. Fifty nanoliters of the indicated reference standard or experimental compound were added to appropriate wells (in duplicate) and the cells were cultured for 48 h at 37° C./5% CO2. Viability was determined by adding 10 μl Cell Titer Glo and measuring luminescence, which is reported as relative light units (RLU) measured in counts per second. The following calculations and formulas are used for data analysis using GraphPad Prism software: The curve fitting was made using the Dose response curves-Inhibition.

The target of test [3] is CSF1R (Ba/F3 cells) (Homo sapiens, UniProt P07333). Kind of test: BaF3 viability assay, CSF1R-dependent cells. The class given is cell-based. The note with it: read-out: Cellular CSF1R activity by Ba/F3 assay (IC50).
Excerpt: as §1, §2

Where [4] appears, read: read-out: CSF1R kinase binding activity, Percent (%) inhibition.
[5] abbreviates: read-out: CSF1R kinase binding activity, Range.

CSF1R, sequence (P07333 20-972): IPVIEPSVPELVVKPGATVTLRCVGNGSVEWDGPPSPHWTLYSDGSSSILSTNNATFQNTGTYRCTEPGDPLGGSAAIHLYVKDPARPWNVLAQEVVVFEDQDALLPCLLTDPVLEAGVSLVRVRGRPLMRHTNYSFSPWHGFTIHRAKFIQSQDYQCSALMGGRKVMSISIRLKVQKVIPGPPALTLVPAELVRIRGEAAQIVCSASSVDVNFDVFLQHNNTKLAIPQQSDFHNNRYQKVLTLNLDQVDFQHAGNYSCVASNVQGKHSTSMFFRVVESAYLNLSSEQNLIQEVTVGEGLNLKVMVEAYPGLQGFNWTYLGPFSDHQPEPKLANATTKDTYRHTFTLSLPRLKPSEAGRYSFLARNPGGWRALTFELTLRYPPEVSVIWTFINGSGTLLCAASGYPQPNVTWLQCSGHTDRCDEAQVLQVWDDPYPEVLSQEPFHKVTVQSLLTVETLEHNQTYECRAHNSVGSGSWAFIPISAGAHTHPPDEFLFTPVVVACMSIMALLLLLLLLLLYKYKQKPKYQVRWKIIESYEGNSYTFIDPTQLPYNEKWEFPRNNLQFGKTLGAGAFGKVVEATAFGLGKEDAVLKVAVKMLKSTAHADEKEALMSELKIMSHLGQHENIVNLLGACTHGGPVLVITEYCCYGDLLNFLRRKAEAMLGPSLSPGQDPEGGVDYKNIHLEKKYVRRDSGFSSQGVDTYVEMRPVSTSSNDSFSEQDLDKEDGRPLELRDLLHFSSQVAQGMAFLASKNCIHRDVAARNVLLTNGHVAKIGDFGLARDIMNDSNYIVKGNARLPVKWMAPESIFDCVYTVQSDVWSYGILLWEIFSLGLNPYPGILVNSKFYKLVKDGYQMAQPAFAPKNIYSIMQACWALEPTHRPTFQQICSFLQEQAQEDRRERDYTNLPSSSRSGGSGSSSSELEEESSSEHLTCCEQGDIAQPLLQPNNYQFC
CSF1R (Ba/F3 cells), sequence (P07333 whole entry, change not shown): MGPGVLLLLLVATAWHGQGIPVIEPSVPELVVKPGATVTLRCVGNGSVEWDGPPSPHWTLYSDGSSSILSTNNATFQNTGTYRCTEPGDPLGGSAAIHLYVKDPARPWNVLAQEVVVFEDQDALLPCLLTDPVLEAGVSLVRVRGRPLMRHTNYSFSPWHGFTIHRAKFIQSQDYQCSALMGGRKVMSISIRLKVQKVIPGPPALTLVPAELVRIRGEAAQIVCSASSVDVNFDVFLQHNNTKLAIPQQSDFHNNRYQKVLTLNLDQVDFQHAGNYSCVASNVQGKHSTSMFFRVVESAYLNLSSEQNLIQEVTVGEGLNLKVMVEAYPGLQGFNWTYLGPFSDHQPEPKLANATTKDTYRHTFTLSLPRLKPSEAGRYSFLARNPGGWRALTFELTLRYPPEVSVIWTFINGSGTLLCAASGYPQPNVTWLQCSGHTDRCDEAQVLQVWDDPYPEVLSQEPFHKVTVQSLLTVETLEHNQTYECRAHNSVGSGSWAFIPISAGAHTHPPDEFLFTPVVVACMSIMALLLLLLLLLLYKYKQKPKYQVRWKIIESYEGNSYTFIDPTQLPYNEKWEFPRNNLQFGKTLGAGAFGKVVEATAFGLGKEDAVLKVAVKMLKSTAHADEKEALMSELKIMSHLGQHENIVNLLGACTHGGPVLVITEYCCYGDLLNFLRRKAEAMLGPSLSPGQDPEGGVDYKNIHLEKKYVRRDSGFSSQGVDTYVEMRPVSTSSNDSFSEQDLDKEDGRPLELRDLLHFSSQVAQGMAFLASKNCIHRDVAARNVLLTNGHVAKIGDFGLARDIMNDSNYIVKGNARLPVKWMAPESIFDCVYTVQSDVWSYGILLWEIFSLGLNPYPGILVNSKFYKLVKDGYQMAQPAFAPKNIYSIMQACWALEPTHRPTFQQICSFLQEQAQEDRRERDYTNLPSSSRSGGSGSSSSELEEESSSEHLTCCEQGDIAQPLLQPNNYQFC

`COc1cc2nccc(Oc3ccc(NC(=O)c4nn(C5CCOC5)cc4OCC(F)(F)F)c(F)c3)c2cc1OC` (centres unmarked) [Compound 77]: the inhibition at 0.1 µM in test [1] (setting [4]) was 76%; in test [1] (setting [5]), 50 to 80%.

As to `COCCn1cc(OCC(F)(F)F)c(C(=O)Nc2ccc(Oc3ccnc4cc(OC)c(OC)cc34)c(C)c2)n1` [Compound 84], the inhibition at 0.1 µM is 97% in test [1] (setting [4]) and not below 80% in test [1] (setting [5]).

On to `COc1cc2nccc(Oc3ccc(NC(=O)c4nn(C5CC5)cc4OCC(F)(F)F)nc3)c2cc1OC` [Compound 5], for which the GI50 in test [2] and in test [3] was less than 1000 nM throughout. For the same compound, the inhibition at 0.1 µM in test [1] (setting [4]) is 97%; in test [1] (setting [5]) it was not below 80%. Further, in test [1] (read-out: CSF1R kinase binding activity (Kd)), the Kd is less than 100 nM.

Turning to `COc1cc2nccc(Oc3ccc(NC(=O)c4nn(C5CCN(C)C5)cc4OCC(F)(F)F)nc3)c2cc1OC` (centres unmarked) [Compound 91], the inhibition at 0.1 µM in test [1] (setting [4]) is 99%; in test [1] (setting [5]) it was not below 80%.

`COc1cc2nccc(Oc3ccc(NC(=O)c4nn(CC(C)O)cc4OCC(F)(F)F)cc3F)c2cc1OC` (centres unmarked) [Compound 80]: the inhibition at 0.1 µM in test [1] (setting [4]) is 64%; in test [1] (setting [5]), 50 to 80%.

For `COc1cc2nccc(Oc3ccc(NC(=O)c4nn(CCC5CCCC5)cc4OCC(F)(F)F)nc3)c2cc1OC` [Compound 93], the inhibition at 0.1 µM is 89% in test [1] (setting [4]) and not below 80% in test [1] (setting [5]).

As to `COc1cc2nccc(Oc3ccc(NC(=O)c4nn(C5CCNC5)cc4OCC(F)(F)F)cc3)c2cc1OC` (centres unmarked) [Compound 86], the results for the inhibition at 0.1 µM in test [1] (setting [4]) and in test [1] (setting [5]) were 11% and less than 50%, respectively.

On to `COc1cc2nccc(Oc3ccc(NC(=O)c4nn(C5CCNC5)cc4OCC(F)(F)F)cc3F)c2cc1OC` (centres unmarked) [Compound 78], for which the inhibition at 0.1 µM in test [1] (setting [4]) is 11%; in test [1] (setting [5]), less than 50%.

`COc1cc2nccc(Oc3ccc(NC(=O)c4nn(CC5COC5)cc4OCC(F)(F)F)c(F)c3)c2cc1OC` [Compound 95]: the inhibition at 0.1 µM in test [1] (setting [4]) was 61%; in test [1] (setting [5]), 50 to 80%.

Regarding `COc1cc2nccc(Oc3ccc(NC(=O)c4nn(CCN)cc4OCC(F)(F)F)cc3C)c2cc1OC` [Compound 82], the inhibition at 0.1 µM in test [1] (setting [4]) is 35%; in test [1] (setting [5]) it was less than 50%.

As to `COc1cc2nccc(Oc3ccc(NC(=O)c4nn(CCN)cc4OCC(F)(F)F)cc3)c2cc1OC` [Compound 88], the figures for the inhibition at 0.1 µM in test [1] (setting [4]) and in test [1] (setting [5]) were 21% and less than 50%, respectively.

Take `COc1cc2nccc(Oc3ccc(NC(=O)c4nn(CC(C)O)cc4OCC(F)(F)F)cc3C)c2cc1OC` (centres unmarked) [Compound 83]: the inhibition at 0.1 µM in test [1] (setting [4]) was 97%; in test [1] (setting [5]), not below 80%.

Take `COc1cc2nccc(Oc3ccc(NC(=O)c4nn(CCN)cc4OCC(F)(F)F)cc3F)c2cc1OC` [Compound 79]: the inhibition at 0.1 µM is 12% in test [1] (setting [4]) and less than 50% in test [1] (setting [5]).

With `COc1cc2nccc(Oc3ccc(NC(=O)c4nn(CC(C)O)cc4OCC(F)(F)F)cc3)c2cc1OC` (centres unmarked) [Compound 89], the inhibition at 0.1 µM in test [1] (setting [4]) was 56%; in test [1] (setting [5]), 50 to 80%.

On to `COc1cc2nccc(Oc3ccc(NC(=O)c4nn(CC(C)C)cc4OCC(F)(F)F)cc3)c2cc1OC` [Compound 87], for which the values for the inhibition at 0.1 µM in test [1] (setting [4]) and in test [1] (setting [5]) were 71% and 50 to 80%, respectively.

Take `COc1cc2nccc(Oc3ccc(NC(=O)c4nn(C5CCN(C)C5)cc4OCC(F)(F)F)c(F)c3)c2cc1OC` (centres unmarked) [Compound 94]: the figures for the inhibition at 0.1 µM in test [1] (setting [4]) and in test [1] (setting [5]) were 65% and 50 to 80%, respectively.

Consider `COc1cc2nccc(Oc3ccc(NC(=O)c4nn(C5CCOC5)cc4OCC(F)(F)F)cc3C)c2cc1OC` (centres unmarked) [Compound 85], for which the figures for the inhibition at 0.1 µM in test [1] (setting [4]) and in test [1] (setting [5]) were 78% and 50 to 80%, respectively.

As for `COc1cc2nccc(Oc3ccc(NC(=O)c4nn(C5CCOCC5)cc4OCC(F)(F)F)nc3)c2cc1OC` [Compound 90], the inhibition at 0.1 µM in test [1] (setting [4]) is 95%; in test [1] (setting [5]) it was not below 80%.

As for `COc1cc2nccc(Oc3ccc(NC(=O)c4nn(C5CCNC5)cc4OCC(F)(F)F)cc3C)c2cc1OC` (centres unmarked) [Compound 81], the inhibition at 0.1 µM in test [1] (setting [4]) is 46%; in test [1] (setting [5]) it was less than 50%.
